Assay results published in patent publication US9540377B2, “2,6,7,8 substituted purines as HDM2 inhibitors” (Merck Sharp & Dohme Corp., priority 2013, dated 2017).

Target: HDM2 (truncated, residues 17 to 125, containing p53 binding surface) (Homo sapiens (Human), UniProt Q00987)
Test: HDM2 FRET assay (inhibition of binding of FITC labeled p53-site peptide to HDM2)
From the text: IC50 DETERMINATIONS: Dose-response curves were plotted from the inhibition data, from 10 point serial dilutions of inhibitory compounds. Concentration of compound was plotted against em520/Cem495 ratio signal. To generate IC50 values, the dose-response curves were fitted to a standard sigmoidal curve and IC50 values were derived by nonlinear regression analysis.

HDM2 (truncated, residues 17 to 125, containing p53 binding surface), sequence (Q00987 17-125): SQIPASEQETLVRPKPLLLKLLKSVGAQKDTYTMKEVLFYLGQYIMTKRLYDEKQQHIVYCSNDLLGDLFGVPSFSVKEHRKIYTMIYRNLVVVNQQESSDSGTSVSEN

Structure (SMILES)	IC50 (Table 23)	IC50 (Table 16)
COC(C)(c1nc2nc(-c3n[nH]c(=O)o3)nc(-c3cncc(Cl)c3)c2n1C[C@H]1CC[C@H](C)CC1)C1CCCC1 (mixture of isomers) [Example 23.72, 5-{6-(5-chloropyridin-3-yl)-8-(1-cyclopentyl-1-methoxyethyl)-7-[(trans-4-methylcyclohexyl)methyl]-7H-purin-2-yl}-1,3,4-oxadiazol-2(3H)-one]	2.6 nM	
COc1ccccc1C(C)(OC)c1nc2nc(-c3n[nH]c(=O)o3)nc(-c3cncc(Cl)c3)c2n1C[C@H]1CC[C@H](C)CC1 (mixture of isomers) [Example 23.78, 5-{6-(5-chloropyridin-3-yl)-8-[1-methoxy-1-(2-methoxyphenyl)ethyl]-7-[(trans-4-methylcyclohexyl)methyl]-7H-purin-2-yl}-1,3,4-oxadiazol-2(3H)-one]	8.22 nM	
COc1ccccc1C(C)(OC)c1nc2nc(-c3noc(=O)[nH]3)nc(-c3cncc(Cl)c3)c2n1C[C@H]1CC[C@H](C)CC1 (mixture of isomers) [Example 23.79, 3-{6-(5-chloropyridin-3-yl)-8-[1-methoxy-1-(2-methoxyphenyl)ethyl]-7-[(trans-4-methylcyclohexyl)methyl]-7H-purin-2-yl}-1,2,4-oxadiazol-5(4H)-one]	3.8 nM	
COC1(c2nc3nc(-c4n[nH]c(=O)o4)nc(-c4cncc(Cl)c4)c3n2C[C@H]2CC[C@H](C)CC2)CCOc2cccnc21 (mixture of isomers) [Example 23.90, 5-{6-(5-chloropyridin-3-yl)-8-(4-methoxy-3,4-dihydro-2H-pyrano[3,2-b]pyridin-4-yl)-7-[(trans-4-methylcyclohexyl)methyl]-7H-purin-2-yl}-1,3,4-oxadiazol-2(3H)-one]	7.41 nM	
CC(C)(C)C(C)(F)c1nc2nc(-c3noc(=O)[nH]3)nc(-c3cncc(Cl)c3)c2n1C[C@H]1CC[C@H](C)CC1 (mixture of isomers) [Example 23.91, 3-{6-(5-chloropyridin-3-yl)-8-(1-fluoro-1,2,2-trimethylpropyl)-7-[(trans-4-methylcyclohexyl)methyl]-7H-purin-2-yl}-1,2,4-oxadiazol-5(4H)-one]	13 nM	
C[C@H]1CC[C@H](Cn2c(C3(F)CCOc4cccnc43)nc3nc(-c4n[nH]c(=O)o4)nc(-c4cncc(Cl)c4)c32)CC1 (mixture of isomers) [Example 23.92, 5-{6-(5-chloropyridin-3-yl)-8-(4-fluoro-3,4-dihydro-2H-pyrano[3,2-b]pyridin-4-yl)-7-[(trans-4-methylcyclohexyl)methyl]-7H-purin-2-yl}-1,3,4-oxadiazol-2(3H)-one]	2.45 nM	
COCC(C)(F)c1nc2nc(-c3n[nH]c(=O)o3)nc(-c3cncc(Cl)c3)c2n1C[C@H]1CC[C@H](C)CC1 (mixture of isomers) [Example 23.106, 5-{6-(5-chloropyridin-3-yl)-8-(1-fluoro-2-methoxy-1-methylethyl)-7-[(trans-4-methylcyclohexyl)methyl]-7H-purin-2-yl}-1,3,4-oxadiazol-2(3H)-one]	3.93 nM	
COCC(C)(OC)c1nc2nc(-c3noc(=O)[nH]3)nc(-c3cncc(Cl)c3)c2n1C[C@H]1CC[C@H](C)CC1 (mixture of isomers) [Example 23.107, 3-{6-(5-chloropyridin-3-yl)-8-(1,2-dimethoxy-1-methylethyl)-7-[(trans-4-methylcyclohexyl)methyl]-7H-purin-2-yl}-1,2,4-oxadiazol-5(4H)-one]	5.37 nM	
CC(F)(c1ccccc1C#N)c1nc2nc(-c3noc(=O)[nH]3)nc(-c3cncc(Cl)c3)c2n1C[C@H]1CC[C@H](C)CC1 (mixture of isomers) [Example 23.110, 2-{1-[6-(5-chloropyridin-3-yl)-7-[(trans-4-methylcyclohexyl)methyl]-2-(5-oxo-4,5-dihydro-1,2,4-oxadiazol-3-yl)-7H-purin-8-yl]-1-fluoroethyl}benzonitrile]	0.515 nM	
CC(c1ccccc1F)c1nc2nc(-c3noc(=O)[nH]3)nc(-c3cncc(Cl)c3)c2n1C[C@H]1CC[C@H](C)CC1 (mixture of isomers) [Example 23.113, 3-{6-(5-chloropyridin-3-yl)-8-[1-(2-fluorophenyl)ethyl]-7-[(trans-4-methylcyclohexyl)methyl]-7H-purin-2-yl}-1,2,4-oxadiazol-5(4H)-one]	1.39 nM	
CC(c1ccccc1F)c1nc2nc(-c3n[nH]c(=O)o3)nc(-c3cncc(Cl)c3)c2n1C[C@H]1CC[C@H](C)CC1 (mixture of isomers) [Example 23.114, 5-{6-(5-chloropyridin-3-yl)-8-[1-(2-fluorophenyl)ethyl]-7-[(trans-4-methylcyclohexyl)methyl]-7H-purin-2-yl}-1,3,4-oxadiazol-2(3H)-one]	2.13 nM	
CC(c1c(F)cccc1F)c1nc2nc(-c3noc(=O)[nH]3)nc(-c3cncc(Cl)c3)c2n1C[C@H]1CC[C@H](C)CC1 (mixture of isomers) [Example 23.115, 3-{6-(5-chloropyridin-3-yl)-8-[1-(2,6-difluorophenyl)ethyl]-7-[(trans-4-methylcyclohexyl)methyl]-7H-purin-2-yl}-1,2,4-oxadiazol-5(4H)-one]	2.23 nM	
CC(c1ccccc1C#N)c1nc2nc(-c3noc(=O)[nH]3)nc(-c3cncc(Cl)c3)c2n1C[C@H]1CC[C@H](C)CC1 (mixture of isomers) [Example 23.116, 2-{1-[6-(5-chloropyridin-3-yl)-7-[(trans-4-methylcyclohexyl)methyl]-2-(5-oxo-4,5-dihydro-1,2,4-oxadiazol-3-yl)-7H-purin-8-yl]ethyl}benzonitrile]	2.38 nM	
C[C@H]1CC[C@H](Cn2c(N3CCOC4CCCCC43)nc3nc(-c4noc(=O)[nH]4)nc(-c4cncc(Cl)c4)c32)CC1 (single isomer, unassigned) [Example 16.51, 3-[6-(5-chloropyridin-3-yl)-7-[(trans-4-methylcyclohexyl)methyl]-8-(octahydro-4H-1,4-benzoxazin-4-yl)-7H-purin-2-yl]-1,2,4-oxadiazol-5(4H)-one]		30.2 nM
C[C@H]1CC[C@H](Cn2c(N3CCOC4CCCCC43)nc3nc(-c4noc(=O)[nH]4)nc(-c4cncc(Cl)c4)c32)CC1 (single isomer, unassigned) [Example 16.52, 3-[6-(5-chloropyridin-3-yl)-7-[(trans-4-methylcyclohexyl)methyl]-8-(octahydro-4H-1,4-benzoxazin-4-yl)-7H-purin-2-yl]-1,2,4-oxadiazol-5(4H)-one]		1 nM
COC(C)(C)C1CCCN1c1nc2nc(-c3n[nH]c(=O)o3)nc(-c3cccc(Cl)c3)c2n1C[C@H]1CC[C@H](C)CC1 (single isomer, unassigned) [Example 16.70, 5-{6-(3-chlorophenyl)-8-[2-(1-methoxy-1-methylethyl)pyrrolidin-1-yl]-7-[(trans-4-methylcyclohexyl)methyl]-7H-purin-2-yl}-1,3,4-oxadiazol-2(3H)-one]		2.29 nM
COC(C)(C)C1CCCN1c1nc2nc(-c3n[nH]c(=O)o3)nc(-c3cccc(Cl)c3)c2n1C[C@H]1CC[C@H](C)CC1 (single isomer, unassigned) [Example 16.71, 5-{6-(3-chlorophenyl)-8-[2-(1-methoxy-1-methylethyl)pyrrolidin-1-yl]-7-[(trans-4-methylcyclohexyl)methyl]-7H-purin-2-yl}-1,3,4-oxadiazol-2(3H)-one]		2.47 nM
COC(C)(C)C1CCCN1c1nc2nc(-c3noc(=O)[nH]3)nc(-c3cncc(Cl)c3)c2n1C[C@H]1CC[C@H](C)CC1 (single isomer, unassigned) [Example 16.72, 3-{6-(5-chloropyridin-3-yl)-8-[2-(1-methoxy-1-methylethyl)pyrrolidin-1-yl]-7-[(trans-4-methylcyclohexyl)methyl]-7H-purin-2-yl}-1,2,4-oxadiazol-5(4H)-one]		0.985 nM
